What all share (type): in vivo, mouse
Assay [1] concerns BALB/c mice. As to the kind of experiment: LPS-induced endotoxaemia, survival of mice (Example 1). The conditions noted are these: for animals alive 7 days after LPS injection: 200 μl of 300 μM peptide i.p. 1 hour before 200 μg LPS i.p., 10 mice per group (FIG. 2, 3); for protection (survival) from LPS: 4 hours after LPS (FIG. 4). How it is done:
BALB/c mice (10 per group) were injected intraperitoneally with 200 μg LPS. The TREM-1 peptides P1, P2, P3, or P5 (200 μl of a 300 μM solution per mouse) were injected intraperitoneally 1 hour before LPS. Viability of mice was monitored twice a day for 7 days. Statistical analysis was performed by Logrank test. Data from control mice represent cumulative survival curves from two independent experiments performed under identical conditions.
BALB/c mice (10 per group) were injected intraperitoneally with 200 μg LPS. TREM-1 peptide P1, 200 μl of a 300 μM solution per mouse was injected intraperitoneally 1 hour before or 4 hours after LPS. Viability of mice was monitored twice a day for 7 days. Statistical analysis was performed with the Logrank test. Data from control mice represent cumulative survival curves from two independent experiments performed under identical conditions
BALB/c mice (10 per group) were injected intraperitoneally with 200 μg LPS. P1 peptide, 200 μl of a 150, 300 and 600 μM solution per mouse (dots) or P3, 200 μl of a 600 μM solution per mouse (filled squares) were injected intraperitoneally 4 hours after LPS. Viability of mice was monitored twice a day for 7 days. Statistical analysis was performed with the Logrank test
In the experiments of this example, the peptides were administered in a volume of 200 μl of the solution molarity indicated. To assess the ability of TREM1-peptides to protect mice from LPS-induced endotoxaemia, the Inventors administered peptides P1, P2, P3 and P5 (300 μM) 1 hour before a lethal dose of lipopolysaccharide (LPS) (FIG. 2). Lethality was monitored over time and compared with animals that had received control injections of vehicle alone. P5 injection confers maximal protection, with 90% of the animals still alive 7 days after LPS injection, as compared with 10% of control mice (p<0.001). 60% of the P1-treated mice and 50% of the P2 treated mice survived endotoxaemia as compared with 10% of control mice (p<0.01 and p<0.05 respectively).
In order to investigate whether TREM-1 peptide treatment could be delayed until after the administration of LPS, the Inventors injected the peptides at 4 hours after LPS injection. […] 80% of the mice injected with P1 4 hours after LPS survived endotoxaemia compared to 60% of mice treated 1 h before LPS and 10% of mice treated with vehicle alone (p<0.001 and p<0.01 respectively). Thus, P1 is effective even when injected after the outbreak of endotoxaemia. […] P1 administration conferred maximal protection (80%) when administered at 600 μM (p<0.01) and the level of protection dropped to 50% at 300 μM (p<0.05) and further down to 30% at 150 μM as compared to 20% of control mice, indicating a dose dependent effect of P1 (FIG. 4). The Inventors then investigated whether P1 protects against septic shock in the “CLP” model (Cecal Ligation and Puncture is a widely used experimental model of sepsis). Mice treated with two doses of P1 at 5 and 24 hours after CLP were protected from death as compared to control treated mice (p=0.0791) although the difference was not statistically significant. 40% of the mice injected with P1 at 5 days after CLP survived compared to 5% of mice treated with P3 peptide.

The test system of assay [2] is BALB/c mice. As to the kind of experiment: LPS-induced endotoxinemia in mice (Example 3). The note with it: for Serum IL-1β / Serum TNF-α / Serum sTREM-1: endotoxemic mice, 100 μg. The method, then:
P5 (50 μg or 100 μg) or control vector was administered 60 min before LPS.
P5 (75 μg) or control vector was administered 4 or 6 hours after LPS as indicated. […]
After approval by the local ethical committee, male Balb/C mice (20 to 23 g) were randomly grouped and treated with E. coli LPS intraperitoneally (i.p.) in combination with P5 (in 500 μl normal saline) or control vector before or after LPS challenge. In some experiments, 5 μg of an anti TREM-1 monoclonal antibody was administered i.p. one hour after LPS injection. The viability of mice was examined every hour, or animals were sacrificed at regular intervals. Serum samples were collected by cardiac puncture and assayed for TNF-α and IL-1β by ELISA (BD Biosciences), and for sTREM-1 levels by immunodot.

Another assay has as its system C57BL/6 mice. As to the kind of experiment: cecal ligation and puncture (CLP), survival of mice (Example 1). The note with it: 200 μl of 600 μM i.p. 5 and 24 hours after CLP; 5 days after CLP; 15 per group. The method, then:
CLP was induced in C57BL/6 mice (15 per group) as described in Materials and Methods. P1 peptide (empty dots) or P3 peptide (filled squares) (200 μl of a 600 μM solution per mouse) were injected intraperitoneally 5 and 24 hours after CLP induction. Viability of mice was monitored twice a day for 10 days. Statistical analysis was performed with the Logrank test.
In order to investigate whether TREM-1 peptide treatment could be delayed until after the administration of LPS, the Inventors injected the peptides at 4 hours after LPS injection. […] 80% of the mice injected with P1 4 hours after LPS survived endotoxaemia compared to 60% of mice treated 1 h before LPS and 10% of mice treated with vehicle alone (p<0.001 and p<0.01 respectively). Thus, P1 is effective even when injected after the outbreak of endotoxaemia. […] P1 administration conferred maximal protection (80%) when administered at 600 μM (p<0.01) and the level of protection dropped to 50% at 300 μM (p<0.05) and further down to 30% at 150 μM as compared to 20% of control mice, indicating a dose dependent effect of P1 (FIG. 4). The Inventors then investigated whether P1 protects against septic shock in the “CLP” model (Cecal Ligation and Puncture is a widely used experimental model of sepsis). […]

The mark [3] stands for this setting: pre-treatment by 100 μg, 2 and 4 hours.

As to LQVTDSGLYRCVIYHPP [P5], in the assay with BALB/c mice [1], the “animals alive 7 days after LPS injection” value was 90%. Further, in the assay with BALB/c mice [2] (75 μg, delayed up to 4 hours after LPS), the “protection against LD100 dose of LPS, delayed treatment” value was “significant protection”. In addition, in the assay with BALB/c mice [2] (LD100 of LPS), the “clinical appearance of treated mice” value is “remained well groomed and active, had no diarrhoea, and were lively”; the “late death over one week” value is given as “No late death occurred”. For the same sequence, in the assay with BALB/c mice [2] (H2), the “Serum IL-1β” value turned out to be 0.2 ± 0.1 ng/mL, the “Serum TNF-α” value is 2.4 ± 0.5 ng/mL and the “Serum sTREM-1” value was 475 ± 37 ng/mL. Also, in the assay with BALB/c mice [2] (H4), the “Serum IL-1β” value was 0.9 ± 0.2 ng/mL, the “Serum TNF-α” value came out at 0.1 ± 0.1 ng/mL and the “Serum sTREM-1” value is on record as 243 ± 28 ng/mL. In the assay on BALB/c mice [2] (setting [3]), the “increase of serum sTREM-1 levels compared to controls” value was 2 fold and the “reduction of serum cytokines levels compared to controls” value is on record as 30%. In addition, the protection from death entry in the assay on BALB/c mice [2] (single dose (50 μg or 100 μg) 60 min before LD100 of LPS) was “prevented from death in a dose-dependent manner”.

In the case of “LVVTQRPFTRPSEVHMGKFTLKH (listed as Mus musculus) [P1]”, the “protection (survival) from LPS” value in the assay with BALB/c mice [1] (200 μl of 150 μM) was determined as 30%; in the assay on BALB/c mice [1] (200 μl of 300 μM) it was 50%; in the assay with BALB/c mice [1] (200 μl of 600 μM), 80%. Also, the “animals alive 7 days after LPS injection” value with BALB/c mice [1] was 60%. Further, the “late death over one week” value in the assay with BALB/c mice [1] (delayed treatment after LPS) is listed as “No late death occurred”. The sequence also showed a mice surviving endotoxaemia in the assay with BALB/c mice [1] (peptide 300 μM injected 4 hours after LPS (FIG. 3)) of 80%. Moreover, the “mice surviving after CLP” value with C57BL/6 mice amounted to 40%.

The record behind these values is patent US10603357B2, “Therapeutic TREM-1 peptides” (Universite de Lorraine, priority 2004, dated 2020).
